Assay results: patent US11420922B2, “Hydroxylated tropolone inhibitors of nucleotidyl transferases in herpesvirus and Hepatitis B and uses therefor” (Saint Louis University, priority 2015, dated 2022)
pEC50: −log10 of the molar value.

Columns and labels:
[1] = tested on: HSV-2; conditions: 5 μM or less; cited from earlier work
[2] = tested on: patient-derived RNAseH enzymes (genotypes B, C and D); test: Biochemical RNAseH assay with patient-derived variant enzymes; design: species or system Hepatitis B virus
Source text: Four variant patient-derived RNAseH enzymes were expressed as recombinant enzymes, purified, and tested in an RNAseH assay with compounds #1 (FIG. 7A) and #46 (FIG. 7B) at their respective IC50s.
HBV has at least 8 genotypes differing in sequence by 8%. Genetic diversity in the RNAseH domain is about 6%, which is easily high enough to modulate viral sensitivity to RNAseH inhibitors. Therefore, the inventors tested the RNAseH inhibitors #1 [2-hydroxyisoquinoline-1,3(2H,4H)-dione], an HID, and #46 (β-thujaplicinol), an α-hydroxytropolone, for the ability to inhibit variant RNAseHs. Twelve purified, patient-derived RNAseH enzymes (4 from each genotypes B, C and D) were tested with the compounds at their respective IC50 values in a biochemical RNAseH assay. […] Therefore, HBV's high genetic variation is unlikely to present a substantial barrier to drug development.

[3] = Mouse liver microsome assay; assay type: in vitro ADME; conditions: 1 μM in mouse liver microsomes; for ER: extraction ratio
Protocol: Microsomal incubations are run at a final P450 concentration of 0.25 μM. The microsomal mixture is composed of 0.1M potassium phosphate containing 3.3 mM MgCl and 1 μM compound (final concentration). The mixture is prewarmed for 5 min at 37° C. To initiate the reaction a 12 mM stock of NAPDH (1.2 mM, final concentration) is added to the warmed microsomal mixture and aliquots are removed at 0, 5, 10, 20 and 30 min. Samples are quenched with ice cold acetonitrile containing internal standard and either 1.8 mM EDTA or EGTA (final concentration). Samples are vortexed and spun down at 3200 rpm for 5 min. The supernant is transferred to 96-deep well plates and run on LC/MS/MS.

[4] = tested on: HSV-1; conditions: 5 μM or less; cited from earlier work
[5] = tested on: HBV replication; test: Chou-Talalay combination of RNAseH inhibitors with Lamivudine against HBV replication; assay type: cell-based, Hepatitis B virus; conditions: CI <1.0 synergy, ~1.0 additive, >1.0 antagonism
Source text: Additive interactions are shown with the red line, synergistic interactions below the line, and antagonistic interactions are above the line.
Current nucleos(t)ide analog therapy for HBV has converted hepatitis type B from an implacably progressing illness to a controllable disease. However, patients are only very rarely cured, in part due to the incomplete inhibition of HBV replication. The inventors hypothesized that the novel RNaseH inhibitors would work synergistically with the existing nucleos(t)ide analogs because the two classes of drugs target physically distinct active sites on the viral polymerase protein. […] RNAseH inhibitors from two different chemical classes were employed, compound #1 [2-hydroxyisoquinoline-1,3(2H,4H)-dione], an HID, and #46 (β-thujaplicinol), an α-hydroxytropolone, were tested. Chou-Talaly analysis yields a combination index (CI). CI values<1.0 indicate synergy, CIs of approximately 1.0 indicate additive interactions, and CI values>1.0 indicate antagonism. CI values are calculated at various efficacy levels (EC50, EC75, EC90, and EC95), and a weighted CI value favoring higher efficacy levels is also generated. FIGS. 6A & 6B show the results of four experiments employing compound #1 and three with compound #46. […] Therefore, RNAseH inhibitors act strongly synergistically with an approved nucleos(t)ide analog drug against HBV.

[6] = tested on: HSV-1; test: Anti-HSV-1 replication assay in Vero cells, titers by plaque assay; assay type: cell-based, herpes simplex virus 1; conditions: Human alphaherpesvirus 1, Vero, 24 h; for log reduction at 5 µM: read-out: HSV-1 Log suppression 5 μM; for log reduction at 50 µM: read-out: HSV-1 Log suppression 50 μM
Outline: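 Vero monolayers infected with clinical HSV-1 or HSV-2 isolates at MOI 0.1 with compound present (50 and 5 μM final), 1 h at 37° C, then compound in DMEM for another 23 h. Yield titered by plaque assay on Vero cells; EC50 by nonlinear fit of serial dilutions starting at 50 μM, DMSO controls.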

[7] = tested on: HBV; test: HBV replication assay in HepDES19 cells; assay type: cell-based; conditions: Hepatitis B virus; HepDES19 cells; read-out: EC50 (HBV assay)
Outline: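 HepDES19 cells induced by tetracycline withdrawal, then compound applied 48 h later in duplicate (1% DMSO final) and refreshed daily for two more days. After micrococcal nuclease digestion, capsid-associated HBV DNA purified and plus- and minus-strand DNA quantified by TaqMan PCR.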

[8] = tested on: HSV; test: Anti-HSV SAR summary, HSV type not separated; assay type: cell-based, herpes simplex virus; conditions: grouped by activity at 50, 5 and 0.5 μM
Outline: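 Confluent monolayers were infected with HSV-1 or HSV-2 at MOI 0.1 in the presence of compound at 50 and 5 µM for 1 h at 37 °C. Compound was then re-added in DMEM/2% newborn calf serum for 23 h more. Yield was titred by plaque assay on Vero cells, with DMSO controls. EC50 values came from serial dilutions starting at 50 µM, fitted by non-linear regression.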

[9] = tested on: Vero cells; test: Qualitative (visual) Vero cell toxicity; assay type: cell-based; conditions: visual inspection in primary screen, key to t, T not given
Protocol: Qualitative assessments of cytotoxicity were done visually by inspecting the cells in the primary screening assays. For the quantitative assays, cells were plated in 96-well plates at 1.0×10^4 per well. The next day the compounds were added at 0.78 to 100 μM in a final concentration of 1% (v/v) DMSO, and the cells were incubated for 24 hours under conditions identical to those employed for the viral replication inhibition assays. Mitochondrial toxicity was measured by incubating the cells with 0.25 mg/mL thiazolyl blue tetrazolium bromide (MTT, Sigma Aldrich Chemical Co.), the cultures were incubated for 60 min, metabolites were solubilized in acidic isopropanol, and absorbance was read at 570 nm. CC50 values were calculated by non-linear curve fitting using GraphPad Prism.
Compound toxicity was measured both subjectively and quantitatively. Subjective assessments were done by visually inspecting the infected cells at the end of the 24 h infection window through a phase-contrast microscope.

[10] = tested on: HSV-2; test: Anti-HSV-2 replication assay in Vero cells, titers by plaque assay; assay type: cell-based, herpes simplex virus 2; conditions: Human alphaherpesvirus 2, Vero, 24 h; for log reduction at 5 µM: read-out: HSV-2 Log suppression 5 μM; for log reduction at 50 µM: read-out: HSV-2 Log suppression 50 μM

Row | Compound | suppression of HSV-2 replication in cell culture, in words [1] | inhibition of four genotype D RNAseH enzymes ([2]; compound at its IC50, FIGS. 7A & 7B) | inhibition of all 12 variant RNAseH enzymes, in words ([2]; compound at its IC50, genotypes B, C and D) | CL ′hep [3] [mL/min/kg] | CL′int [3] [mL/min/kg] | Non-P450 turn-over [3] | t ½ [3] [h] | ER [3] | suppression of HSV-1 replication in cell culture, in words [4] | weighted CI value (combination index) with Lamivudine [5] | log reduction at 5 µM [6] | log reduction at 50 µM [6] | pEC50 [7] | anti-HSV SAR group, in words [8] | Vero cell toxicity Qualitative [9] | log reduction at 5 µM [10] | log reduction at 50 µM [10] | half-life at 1 μM ([3]; read-out: t ½) [h] | CLint scaled at 1 μM ([3]; mouse, liver microsomes) [mL/min/kg] | predicted hepatic clearance at 1 μM ([3]; mouse, liver microsomes, read-out: CL ′hep) [mL/min/kg]
1 | CC(C)c1ccc(O)c(=O)c(O)c1 [Compound 46, β-thujaplicinol, reference compound] | strongly suppress | about 50% | Equivalent results | 70 | 318 | No | 0.267 | 0.78 | strongly suppress | 0.44±0.3 |  |  |  |  |  |  |  |  |  | 
2 | CC(=O)c1cc(O)c(=O)c(O)cc1C [Compound 110] |  |  |  |  |  | No |  | 0.22 |  |  | -0.47 | 5.11 | 6.47 | weakest inhibitors | t? | -0.65 | 4.24 | > 2 | 26 | 20
3 | CCOC(=O)c1c(C)cc(O)c(=O)c(O)c1C [Compound 117] |  |  |  |  |  |  |  |  |  |  | 0.76 | 4.66 |  | weakest inhibitors | t? | -0.16 | 4.97 |  |  | 
